22 compounds from ChEMBL document CHEMBL4425173, “Synthesis, biological evaluation and molecular modeling studies of psammaplin A and its analogs as potent histone deacetylases inhibitors and cytotoxic agents” (Bioorg Med Chem Lett, 2016) can be followed below.

Molecules are shown by their SMILES. The source made the active and inactive calls. No cut-off for these calls is given here.

The target of one assay is Histone deacetylase. Briefly: Inhibition of HDAC in human HeLa cells using Fluor deLys as substrate assessed as deacetylation of substrate by fluorescence assay. The class given is cell-based.
Another assay has as its system A549. Briefly: Cytotoxicity against human A549 cells assessed as reduction in cell growth inhibition after 96 hrs by MTT assay. The class given is functional. The conditions noted are these: A549, 96 h. In general terms: Tetrazolium dyes change colour on reduction, which living cells bring about.
In another assay the test system is HL-60. Briefly: Cytotoxicity against human HL60 cells assessed as reduction in cell growth inhibition after 72 hrs by trypan blue-staining based hemocytometric analysis. The class given is functional. The conditions noted are these: HL-60, 72 h.
In the next assay the test system is MCF7. Briefly: Cytotoxicity against human MCF7 cells assessed as reduction in cell growth inhibition after 96 hrs by MTT assay. The format is functional. The conditions noted are these: MCF7, 96 h.
A further assay relates to PC-3. Briefly: Cytotoxicity against human PC3 cells assessed as reduction in cell growth inhibition after 96 hrs by MTT assay. The format is functional. The conditions noted are these: PC-3, 96 h.
The target of assay [1] is Histone deacetylase (Homo sapiens) (UniProt Q13547+O15379+Q9UBN7+Q92769+Q9UQL6+Q8WUI4+Q9BY41+Q96DB2+P56524+Q9UKV0+Q969S8). Briefly: Inhibition of HDAC in human HL60 cells assessed as upregulation of H3 acetylation levels at 2 uM after 18 hrs by SDS-PAGE analysis. The class given is cell-based.

For the compound `CC(C)c1ccc(C/C(=N\O)C(=O)NCCSSCCNC(=O)/C(Cc2ccc(C(C)C)cc2)=N/O)cc1`, on Histone deacetylase, the IC50 (usually the midpoint of a concentration-inhibition curve) was 0.21 µM. In addition, the GI50 – broadly, the concentration giving 50% growth inhibition – in the assay with A549 was found to be 4.61 µM; in the assay on HL-60, 0.5 µM; with MCF7, 3.91 µM; with PC-3, 2.67 µM.
Regarding `COc1ccc(-c2cc(C(=O)NCCSSCCNC(=O)c3cc(-c4ccc(OC)cc4)[nH]n3)n[nH]2)cc1`, the IC50 on Histone deacetylase is 2.77 µM. Besides, the results for the GI50 in the assay on HL-60 and with PC-3 were 6.45 µM and 26.6 µM, respectively.
For `COc1ccc(C/C(=N\O)C(=O)NCCSSCCNC(=O)/C(Cc2ccc(OC)cc2)=N/O)cc1`, at Histone deacetylase, the IC50 is 0.12 µM. Besides, the GI50 amounted to 6.85 µM in the assay with A549, 0.78 µM with HL-60, 2.68 µM with MCF7 and 5.5 µM in the assay with PC-3.
Taken in the same sequence, the figures for `CO/N=C(\Cc1ccc(OC)cc1)C(=O)NCCSSCCNC(=O)/C(Cc1ccc(OC)cc1)=N/OC` were 3.15 µM, 38.3 µM, 5.18 µM, 16.4 µM and 26.8 µM.
Consider `O=C(NCCSSCCNC(=O)c1cc(-c2ccc(O)cc2)on1)c1cc(-c2ccc(O)cc2)on1`, for which the IC50 on Histone deacetylase was found to be 3.14 µM. Moreover, the figures for the GI50 with HL-60 and in the assay with PC-3 were 11.6 µM and 31.7 µM, respectively.
Take `O=C(NCCSSCCNC(=O)c1cc(-c2ccc(O)c(Br)c2)[nH]n1)c1cc(-c2ccc(O)c(Br)c2)[nH]n1`: at Histone deacetylase, the IC50 came to 0.68 µM. Also, the GI50 in the assay on HL-60 stood at 6.14 µM; with PC-3, 17.1 µM.
Take `O=C(NCCSSCCNC(=O)/C(Cc1ccc(O)c(Br)c1)=N/O)/C(Cc1ccc(O)c(Br)c1)=N/O` [PSAMMAPLIN A]: the “H3 acetylation upregulation (active/not active)” value in assay [1] is “Active”. Also, on Histone deacetylase, the IC50 stood at 0.05 µM. For the same compound, the GI50 in the assay on A549 amounted to 4.5 µM; with HL-60, 0.29 µM; in the assay on MCF7, 2.26 µM; with PC-3 it was 3.52 µM.
`COc1cc(C/C(=N\O)C(=O)NCCSSCCNC(=O)/C(Cc2ccc(O)c(OC)c2)=N/O)ccc1O`: the “H3 acetylation upregulation (active/not active)” value in assay [1] is “Active”. In addition, the IC50 on Histone deacetylase worked out at 0.04 µM. The GI50 in the assay on A549 was 4.84 µM; in the assay with HL-60 it was 0.28 µM; with MCF7 it was 2.47 µM; in the assay on PC-3 it was 3.41 µM.
Consider `COc1ccc(-c2cc(C(=O)NCCSSCCNC(=O)c3cc(-c4ccc(OC)cc4)on3)no2)cc1`, for which the IC50 on Histone deacetylase was found to be 8.31 µM. Besides, the values for the GI50 in the assay with HL-60 and with PC-3 were 18.3 µM and over 50 µM, respectively.
Take `O=C(NCCSSCCNC(=O)/C(Cc1cccc(Cl)c1)=N/O)/C(Cc1cccc(Cl)c1)=N/O`: at Histone deacetylase, the IC50 is 0.21 µM. Further, the GI50 in the assay on A549 stood at 5.42 µM; with HL-60 it was 0.57 µM; in the assay with MCF7, 3.51 µM; in the assay on PC-3, 5.19 µM.
For `COc1ccc(-c2cc(C(=O)NCCSSCCNC(=O)c3cc(-c4ccc(OC)c(Br)c4)on3)no2)cc1Br`, the IC50 at Histone deacetylase was found to be 4.65 µM. The GI50 was found to be 13.3 µM with HL-60 and 39 µM with PC-3.
For the compound `Cc1ccc(C/C(=N\O)C(=O)NCCSSCCNC(=O)/C(Cc2ccc(C)cc2)=N/O)cc1`, the “H3 acetylation upregulation (active/not active)” value in assay [1] is “Active”. Besides, the IC50 on Histone deacetylase is 0.26 µM. Besides, the GI50 was 8.35 µM in the assay with A549, 0.74 µM in the assay on HL-60, 4.3 µM in the assay on MCF7 and 6.43 µM in the assay with PC-3.
As for `CO/N=C(\Cc1cccc(Cl)c1)C(=O)NCCSSCCNC(=O)/C(Cc1cccc(Cl)c1)=N/OC`, the IC50 at Histone deacetylase came out at 4.5 µM. The GI50 came out at 32 µM in the assay on A549, 6.55 µM in the assay on HL-60, 14.3 µM in the assay with MCF7 and 23.1 µM in the assay with PC-3.
For `O=C(NCCSSCCNC(=O)/C(Cc1ccc(Cl)cc1Cl)=N/O)/C(Cc1ccc(Cl)cc1Cl)=N/O`, at Histone deacetylase, the IC50 amounted to 0.28 µM. Further, the GI50 with A549 turned out to be 6.79 µM; in the assay on HL-60 it was 0.87 µM; in the assay on MCF7 it was 4.98 µM; with PC-3 it was 4.61 µM.
Regarding `O=C(NCCSSCCNC(=O)c1cc(-c2ccc(O)cc2)[nH]n1)c1cc(-c2ccc(O)cc2)[nH]n1`, on Histone deacetylase, the IC50 stood at 1.81 µM. In addition, the values for the GI50 with HL-60 and with PC-3 were 4.11 µM and 19.8 µM, respectively.
For `COc1ccc(C/C(=N\O)C(=O)NCCSSCCNC(=O)/C(Cc2ccc(OC)c(O)c2)=N/O)cc1O`, the “H3 acetylation upregulation (active/not active)” value in assay [1] is “Active”. The IC50 on Histone deacetylase worked out at 0.03 µM. For the same compound, the GI50 in the assay with A549 was 4.74 µM; in the assay with HL-60, 0.23 µM; in the assay on MCF7 it was 2.7 µM; in the assay on PC-3 it was 3.27 µM.
With `O=C(NCCSSCCNC(=O)/C(Cc1ccc2c(c1)OCO2)=N/O)/C(Cc1ccc2c(c1)OCO2)=N/O`, the “H3 acetylation upregulation (active/not active)” value in assay [1] was “Active”. Besides, the IC50 at Histone deacetylase worked out at 0.13 µM. Moreover, the GI50 in the assay with A549 was 4.78 µM; in the assay on HL-60 it was 0.67 µM; with MCF7, 3.77 µM; in the assay on PC-3 it was 2.4 µM.
Take `CO/N=C(\Cc1ccc(C)cc1)C(=O)NCCSSCCNC(=O)/C(Cc1ccc(C)cc1)=N/OC`: the “H3 acetylation upregulation (active/not active)” value in assay [1] was “inactive”. Also, the IC50 at Histone deacetylase came out at 7.65 µM. Also, the GI50 with A549 was over 50 µM; in the assay with HL-60 it was 11.9 µM; with MCF7, over 50 µM; in the assay with PC-3, over 50 µM.
As for `CO/N=C(\Cc1ccc(Cl)cc1Cl)C(=O)NCCSSCCNC(=O)/C(Cc1ccc(Cl)cc1Cl)=N/OC`, the IC50 on Histone deacetylase was found to be 8.59 µM. For the same compound, the GI50 in the assay on A549 is 47.1 µM; with HL-60, 8.64 µM; in the assay with MCF7, 16.5 µM; in the assay with PC-3, over 50 µM.
With `O=C(NCCSSCCNC(=O)/C(Cc1ccc(O)cc1)=N/O)/C(Cc1ccc(O)cc1)=N/O`, the IC50 at Histone deacetylase was determined as 0.12 µM. Besides, the GI50 in the assay with A549 amounted to 6.54 µM; with HL-60, 0.62 µM; in the assay with MCF7, 4.62 µM; in the assay on PC-3 it was 5.33 µM.
On to `COc1ccc(-c2cc(C(=O)NCCSSCCNC(=O)c3cc(-c4ccc(OC)c(Br)c4)[nH]n3)n[nH]2)cc1Br`, for which the IC50 at Histone deacetylase amounted to 1.86 µM. Further, the GI50 turned out to be 5.52 µM with HL-60 and 16.9 µM in the assay on PC-3.
Take `O=C(NCCSSCCNC(=O)/C(Cc1cccc(C(F)(F)F)c1)=N/O)/C(Cc1cccc(C(F)(F)F)c1)=N/O`: at Histone deacetylase, the IC50 came to 0.27 µM. Also, the GI50 in the assay with A549 is 4.48 µM; in the assay with HL-60 it was 0.52 µM; in the assay with MCF7, 3.48 µM; with PC-3, 6.78 µM.
